Results reported in ChEMBL document CHEMBL4138306, “Potent Inhibitors of Hepatitis C Virus NS3 Protease: Employment of a Difluoromethyl Group as a Hydrogen-Bond Donor” (ACS Med Chem Lett, 2018).

Legend:
[1] = AUC in Sprague-Dawley rat at 15 mg/kg, po administered via gavage or 5 mg/kg, iv administered as 10 mins infusion by LC/MS/MS analysis; assay type: ADME, organism-based; conditions: in vivo
[2] = Oral bioavailability in Sprague-Dawley rat at 15 mg/kg, administered via gavage by LC/MS/MS analysis; assay type: ADME, organism-based; conditions: in vivo
[3] = Clearance in Sprague-Dawley rat at 15 mg/kg, po administered via gavage or 5 mg/kg, iv administered as 10 mins infusion by LC/MS/MS analysis; assay type: ADME, organism-based; conditions: in vivo
[4] = system: Hepatitis C virus; test: Antiviral activity against HCV genotype 1b Con1 infected in human HuH7.5 cells assessed as inhibition of viral replication after 4 days by luciferase reporter gene assay; assay type: functional, organism-based, Hepacivirus hominis; conditions: isolate Con1, Huh7.5, 96 h
[5] = target: Hepatitis C virus serine protease, NS3/NS4A (Hepatitis C virus, UniProt A3EZI9+D2K2A8)
Description: Inhibition of recombinant full length HCV genotype 1a NS3/4A protease (1027 to 1711 residues) expressed in Escherichia coli strain BL21 (DE3) using RET S1 as substrate incubated for 1 min followed by substrate addition measured after 15 mins by FRET assay

[6] = Elimination half life in Sprague-Dawley rat at 15 mg/kg, po administered via gavage or 5 mg/kg, iv administered as 10 mins infusion by LC/MS/MS analysis; assay type: ADME, organism-based; conditions: in vivo, read-out: beta t1/2 (converted)
[7] = Drug uptake in Sprague-Dawley rat liver at 15 mg/kg, po administered via gavage by LC/MS/MS analysis; assay type: ADME, organism-based; conditions: in vivo, read-out: Drug uptake
[8] = Half life in human liver microsomes by LC/MS/MS analysis; assay type: ADME, microsome
[9] = Permeability from basolateral to apical side in human Caco2 cells; assay type: ADME, cell-based; conditions: Caco-2, read-out: permeability
[10] = Permeability from apical to basolateral side in human Caco2 cells; assay type: ADME, cell-based; conditions: Caco-2, read-out: permeability

Hepatitis C virus serine protease, NS3/NS4A, sequence (D2K2A8 whole entry, the tested form may be a part): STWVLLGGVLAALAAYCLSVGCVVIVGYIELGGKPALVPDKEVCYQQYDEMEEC
Hepatitis C virus serine protease, NS3/NS4A, sequence (A3EZI9 whole entry, the tested form may be a part): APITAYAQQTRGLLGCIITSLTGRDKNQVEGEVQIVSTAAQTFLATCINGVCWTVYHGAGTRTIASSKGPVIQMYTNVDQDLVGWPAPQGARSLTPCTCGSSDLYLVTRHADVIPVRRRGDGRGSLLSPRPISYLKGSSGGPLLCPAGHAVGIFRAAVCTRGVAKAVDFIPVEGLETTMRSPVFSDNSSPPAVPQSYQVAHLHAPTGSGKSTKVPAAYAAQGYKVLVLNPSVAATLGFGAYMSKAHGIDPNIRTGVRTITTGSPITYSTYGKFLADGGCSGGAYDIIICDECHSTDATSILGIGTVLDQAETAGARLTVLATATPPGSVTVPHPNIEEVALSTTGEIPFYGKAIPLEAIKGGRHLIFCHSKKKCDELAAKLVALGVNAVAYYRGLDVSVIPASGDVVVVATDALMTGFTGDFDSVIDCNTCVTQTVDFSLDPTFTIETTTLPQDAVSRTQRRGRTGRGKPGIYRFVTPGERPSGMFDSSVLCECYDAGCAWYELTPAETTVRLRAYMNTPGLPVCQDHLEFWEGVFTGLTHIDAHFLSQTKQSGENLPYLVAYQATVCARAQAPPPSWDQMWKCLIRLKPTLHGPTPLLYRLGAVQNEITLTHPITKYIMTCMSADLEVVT

| Compound | EC50 [4] [nM] | IC50 [5] [nM] | half-life [8] [h] | other results |
| --- | --- | --- | --- | --- |
| C=C[C@@H]1C[C@]1(NC(=O)[C@@H]1C[C@@H](Oc2ncc(OC)c3ccc(Cl)cc23)CN1C(=O)[C@@H](NC(=O)OC(C)(C)C)C(C)(C)C)C(=O)NS(=O)(=O)C1CC1 |  |  |  | AUC at 10 min [1]: 1 µM·h |
| CC[C@@H](NC(=O)[C@@H]1C[C@@H](Oc2ncc(OC)c3ccc(Cl)cc23)CN1C(=O)[C@@H](NC(=O)OC(C)(C)C)C(C)(C)C)C(=O)NS(=O)(=O)C1CC1 | > 1000 | 7980 |  |  |
| COc1cnc(O[C@@H]2C[C@@H](C(=O)N[C@H](CC(F)F)C(=O)NS(=O)(=O)C3CC3)N(C(=O)[C@@H](NC(=O)OC(C)(C)C)C(C)(C)C)C2)c2cc(Cl)ccc12 | > 1000 | 2480 |  |  |
| COc1ccc2c(O[C@@H]3C[C@@H](C(=O)NC(CC(F)F)C(=O)NS(=O)(=O)C4CC4)N(C(=O)[C@@H](NC(=O)OC(C)(C)C)C(C)(C)C)C3)cc(-c3ccccc3)nc2c1 (stereo partly drawn) |  | > 1000 |  |  |
| COc1cnc(O[C@@H]2C[C@@H](C(=O)NC(C)(C)C(=O)NS(=O)(=O)C3CC3)N(C(=O)[C@@H](NC(=O)OC(C)(C)C)C(C)(C)C)C2)c2cc(Cl)ccc12 | > 1000 | 2190 |  |  |
| CC[C@H](NC(=O)[C@@H]1C[C@@H](Oc2ncc(OC)c3ccc(Cl)cc23)CN1C(=O)[C@@H](NC(=O)OC(C)(C)C)C(C)(C)C)C(=O)NS(=O)(=O)C1CC1 | > 1000 | 3080 |  |  |
| C=CC[C@](C)(NC(=O)[C@@H]1C[C@@H](Oc2ncc(OC)c3ccc(Cl)cc23)CN1C(=O)[C@@H](NC(=O)OC(C)(C)C)C(C)(C)C)C(=O)NS(=O)(=O)C1CC1 | 23000 | 33000 | 0.892 |  |

The next lines start with results.

| EC50 [4] [nM] | IC50 [5] [nM] | half-life [8] [h] | Compound | other results |
| --- | --- | --- | --- | --- |
| 18.3 | 6 |  | COc1cnc(O[C@@H]2C[C@@H](C(=O)N[C@]3(C(=O)NS(=O)(=O)C4CC4)C[C@H]3C3CC3)N(C(=O)[C@@H](NC(=O)OC(C)(C)C)C(C)(C)C)C2)c2cc(Cl)ccc12 | bioavailability [2]: 34 to 44.2%; clearance [3]: 5.2 mL/min/kg; AUC at 10 min [1]: 19.6 µM·h; half-life [6]: 6 to 10 h |
| 16 | 5 |  | CC[C@@H]1C[C@]1(NC(=O)[C@@H]1C[C@@H](Oc2ncc(OC)c3ccc(Cl)cc23)CN1C(=O)[C@@H](NC(=O)OC(C)(C)C)C(C)(C)C)C(=O)NS(=O)(=O)C1CC1 | concentration [7]: 40.3 µM; AUC at 10 min [1]: 6.89 µM·h |
| 336 | 40 | 2 | COc1cnc(O[C@@H]2C[C@@H](C(=O)NC3(C(=O)NS(=O)(=O)C4CC4)CC3)N(C(=O)[C@@H](NC(=O)OC(C)(C)C)C(C)(C)C)C2)c2cc(Cl)ccc12 |  |
| 509 | 976 |  | COc1cnc(O[C@@H]2C[C@@H](C(=O)N[C@@H](CC(F)F)C(=O)NS(=O)(=O)C3CC3)N(C(=O)[C@@H](NC(=O)OC(C)(C)C)C(C)(C)C)C2)c2cc(Cl)ccc12 |  |
| 7.6 to 8 |  | 2 | COc1cnc(O[C@@H]2C[C@@H](C(=O)N[C@]3(C(=O)NS(=O)(=O)C4CC4)C[C@H]3C(F)F)N(C(=O)[C@@H](NC(=O)OC(C)(C)C)C(C)(C)C)C2)c2cc(Cl)ccc12 | bioavailability [2]: 0.9%; concentration [7]: 0.27 µM; Papp B→A [9]: 4.7 ×10⁻⁶ cm/s; clearance [3]: 58 mL/min/kg; AUC at 10 min [1]: 0.05 µM·h; Papp A→B [10]: < 1.5 ×10⁻⁶ cm/s; half-life [6]: 2.6 h |
| 1280 | 261 |  | COc1cnc(O[C@@H]2C[C@@H](C(=O)NC3(C(=O)NS(=O)(=O)C4CC4)CCC3)N(C(=O)[C@@H](NC(=O)OC(C)(C)C)C(C)(C)C)C2)c2cc(Cl)ccc12 |  |
| 125 | 17 | 0.783 | COc1cnc(O[C@@H]2C[C@@H](C(=O)N[C@]3(C(=O)NS(=O)(=O)C4CC4)C[C@H]3C(F)(F)F)N(C(=O)[C@@H](NC(=O)OC(C)(C)C)C(C)(C)C)C2)c2cc(Cl)ccc12 |  |
| 64 | 13 | 1.6 | COc1cnc(O[C@@H]2C[C@@H](C(=O)N[C@]3(C(=O)NS(=O)(=O)C4CC4)C[C@H]3C)N(C(=O)[C@@H](NC(=O)OC(C)(C)C)C(C)(C)C)C2)c2cc(Cl)ccc12 |  |
| 31 | 14 | 3.33 | COc1cnc(O[C@@H]2C[C@@H](C(=O)N[C@]3(C(=O)NS(=O)(=O)C4CC4)C[C@H]3CC(F)F)N(C(=O)[C@@H](NC(=O)OC(C)(C)C)C(C)(C)C)C2)c2cc(Cl)ccc12 |  |
